Experimental data reported in the supplement of paper PMC10307832.

Key:
[1] = compound: C=CCn1c(=O)c2cnc(Nc3ccc(N4CCN(C)CC4)cc3)nc2n1-c1cccc(C(C)(C)O)n1 [Adavosertib] + COc1cc2c(Oc3ccc(NC(=O)C4(C(=O)Nc5ccc(F)cc5)CC4)cc3F)ccnc2cc1OCCCN1CCOCC1 [Foretinib] (partner 0.25 µM); experiment: relative viability (nuclei count vs DMSO), 5 days (fraction); higher = more cells survive
How it was run: (§1)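 A single step with final 0.05% Triton X-100, 1% formaldehyde and 1 ug/ml Hoechst fixed the cells and stained nuclei 5 days after treatment. Lung cancer cell lines in 1536-well plates had been treated by pin tool the day after seeding with one drug alone or a fixed anchor-drug dose plus five library-drug doses (not always all listed) in √10 steps, and nuclei were counted on 4× images. Relative viability is the ratio of nuclei in treated wells to nuclei in vehicle wells, taken as the median of duplicate plates.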

[2] = compound: COc1nc(N)nc2c1ncn2[C@@H]1O[C@H](CO)[C@@H](O)[C@@H]1O [Nelarabine] + Cc1cc(Nc2cc(N3CCN(C)CC3)nc(Sc3ccc(NC(=O)C4CC4)cc3)n2)n[nH]1 [Tozasertib] (partner 0.1 µM); experiment: as above
How it was run: as §1

Row | Cell Line | relative viability ([1]; first compound 0.01 µM) | relative viability ([1]; first compound 0.03162 µM) | relative viability ([1]; first compound 0.1 µM) | relative viability ([1]; first compound 0.3162 µM) | relative viability ([2]; first compound 0.01 µM) | relative viability ([2]; first compound 0.03162 µM) | relative viability ([2]; first compound 0.1 µM) | relative viability ([2]; first compound 0.3162 µM) | relative viability ([2]; first compound 1 µM)
1 | NCI-H1915 | 1.14 | 1.03 | 1.2 | 1.14 | 0.576 | 0.417 | 0.633 | 0.475 | 0.459
2 | ABC-1 | 0.909 | 1.31 | 1.39 | 1.03 | 0.233 | 0.149 | 0.162 | 0.146 | 0.175
3 | NCI-H358 | 0.764 | 0.682 | 0.592 | 0.285 | 0.0868 | 0.0783 | 0.096 | 0.105 | 0.0898
4 | HCC-366 | 0.96 | 0.935 | 0.924 | 1.04 | 0.0929 | 0.0947 | 0.0956 | 0.17 | 0.112
5 | EBC-1 | 0.111 | 0.101 | 0.115 | 0.0875 | – | – | – | – | –
6 | NCI-H1650 | 1.12 | 1.15 | 1.31 | 0.797 | 0.393 | 0.307 | 0.331 | 0.458 | 0.378
7 | NCI-H1395 | 0.922 | 0.932 | 0.989 | 0.83 | 0.839 | 0.67 | 0.814 | 0.729 | 0.657
8 | SW 900 | – | 0.727 | 0.853 | 0.907 | 0.617 | 0.476 | 0.635 | 0.611 | 0.532
9 | NCI-H1666 | 0.93 | 0.953 | 0.961 | 0.887 | 0.626 | 0.572 | 0.606 | 0.578 | 0.632
10 | COR-L23 | 1.02 | 0.997 | 1.08 | 0.644 | 0.199 | 0.165 | 0.168 | 0.22 | 0.185
11 | ChaGo-K-1 | 0.856 | 0.951 | 0.941 | 1.02 | 0.237 | 0.205 | 0.193 | 0.232 | 0.231
12 | SW 1573 | 0.953 | 0.914 | 1.13 | 1.2 | 0.167 | 0.199 | 0.134 | 0.23 | 0.162
13 | NCI-H23 | 1.04 | 0.891 | 0.75 | 0.261 | 0.594 | 0.327 | 0.377 | 0.369 | 0.509
14 | NCI-H1299 | 1.08 | 1.11 | 1.1 | 0.437 | – | – | – | – | –
15 | NCI-H1944 | 0.869 | 0.9 | 0.842 | 0.717 | 0.285 | 0.239 | 0.252 | 0.27 | 0.253
16 | PC-3 [JPC-3] | 0.957 | 1.04 | 1.04 | 1.04 | 1.02 | 0.747 | 0.934 | 0.891 | 0.899
17 | NCI-H2126 | 1.27 | 1.22 | 1.15 | 1.16 | 0.968 | 0.864 | 0.779 | 0.809 | 0.824
18 | HCC-827 | 1.07 | 1.09 | 1.09 | 0.929 | 0.499 | 0.423 | 0.446 | 0.366 | 0.476
19 | H3255 | 0.892 | 0.851 | 0.921 | 1.04 | – | 0.896 | 0.685 | 0.576 | 0.515
20 | NCI-H838 | 1.06 | 1.06 | 1.04 | 1.19 | 0.285 | 0.274 | 0.272 | 0.341 | 0.262

Row | Cell Line | relative viability ([1]; first compound 0.01 µM) | relative viability ([1]; first compound 0.03162 µM) | relative viability ([1]; first compound 0.1 µM) | relative viability ([1]; first compound 0.3162 µM) | relative viability ([2]; first compound 0.01 µM) | relative viability ([2]; first compound 0.03162 µM) | relative viability ([2]; first compound 0.1 µM) | relative viability ([2]; first compound 0.3162 µM) | relative viability ([2]; first compound 1 µM)
21 | NCI-H1734 | 0.954 | 0.831 | 0.82 | 0.759 | 0.305 | 0.253 | 0.253 | 0.257 | 0.292
22 | HCC-44 | – | – | – | – | 1.27 | 1.25 | 1 | 1.11 | 0.867
23 | HOP-62 | 1.09 | 1.23 | 1.15 | 1.34 | 0.434 | 0.305 | 0.42 | 0.364 | 0.402
24 | NCI-H3122 | 0.982 | 0.931 | 0.956 | 0.996 | 0.547 | 0.403 | – | 0.434 | 0.534
25 | NCI-H2405 | 1.05 | 1.06 | 1.1 | 1.13 | 0.805 | 0.682 | 0.663 | 0.73 | 0.67
26 | UMC-11 | 0.981 | 1.06 | 1.06 | 1.08 | 0.185 | 0.204 | 0.378 | 0.206 | 0.204
27 | COR-L 105 | 0.781 | 0.872 | 1.24 | 0.925 | 0.356 | 0.353 | 0.302 | 0.362 | 0.433
28 | NCI-H2085 | 0.785 | 0.954 | 0.887 | 0.921 | 0.847 | 0.914 | 0.733 | 0.882 | 0.736
29 | IA-LM | 0.945 | 1.18 | 1.43 | 1.37 | – | – | – | – | –
30 | LK-2 | 1.16 | 1.21 | 1.64 | 1.14 | 0.172 | – | 0.161 | 0.147 | 0.156
31 | NCI-H2009 | 1.17 | 1.21 | 1.26 | 1.2 | 0.893 | 0.748 | 0.742 | 0.812 | 0.752
32 | BEN | 0.523 | 0.682 | 0.566 | 0.695 | 0.566 | 0.495 | 0.551 | 0.546 | 0.452
33 | RERF-LC-KJ | 0.857 | 0.844 | 0.882 | 0.954 | 0.558 | 0.483 | 0.456 | 0.5 | 0.513
34 | LU99A | 0.86 | 0.779 | 0.771 | 0.579 | 0.287 | 0.253 | 0.239 | 0.264 | 0.279
35 | PC-14 | 0.934 | 0.957 | 0.933 | 0.636 | 0.625 | 0.645 | 0.597 | 0.599 | 0.631
36 | NCI-H650 | 1.06 | 1.01 | 1.06 | 0.889 | 0.787 | 0.616 | 0.694 | 0.768 | 0.735
37 | NCI-H1651 | 0.729 | 0.95 | 0.812 | 0.723 | 0.944 | 0.767 | 0.689 | 0.674 | 0.685
38 | NCI-H2023 | 0.85 | 0.933 | 0.916 | 0.568 | 0.416 | 0.41 | 0.39 | 0.33 | 0.422
39 | NCI-H1703 | 0.399 | 0.43 | 0.335 | 0.203 | – | – | – | – | –
